In PMC2921948 (Clinical cancer research : an official journal of the …, 2010) one finds IC50 data, which are given here for two molecules.

Where two headings read alike, the source gives them in different places.

Test [1] concerns the target T1, human serum albumin (HSA) (Homo sapiens, UniProt P02768). In words: fluorescence polarization displacement of dansyl sarcosine. It counts as binding. A general note: In fluorescence polarisation assays a small probe gives low polarisation when free and higher when bound to something large.
Test [2] addresses T1, human serum albumin (HSA). Described as above. It counts as binding. The source holds these as a separate data set.

T1 sequence (P02768 25-609): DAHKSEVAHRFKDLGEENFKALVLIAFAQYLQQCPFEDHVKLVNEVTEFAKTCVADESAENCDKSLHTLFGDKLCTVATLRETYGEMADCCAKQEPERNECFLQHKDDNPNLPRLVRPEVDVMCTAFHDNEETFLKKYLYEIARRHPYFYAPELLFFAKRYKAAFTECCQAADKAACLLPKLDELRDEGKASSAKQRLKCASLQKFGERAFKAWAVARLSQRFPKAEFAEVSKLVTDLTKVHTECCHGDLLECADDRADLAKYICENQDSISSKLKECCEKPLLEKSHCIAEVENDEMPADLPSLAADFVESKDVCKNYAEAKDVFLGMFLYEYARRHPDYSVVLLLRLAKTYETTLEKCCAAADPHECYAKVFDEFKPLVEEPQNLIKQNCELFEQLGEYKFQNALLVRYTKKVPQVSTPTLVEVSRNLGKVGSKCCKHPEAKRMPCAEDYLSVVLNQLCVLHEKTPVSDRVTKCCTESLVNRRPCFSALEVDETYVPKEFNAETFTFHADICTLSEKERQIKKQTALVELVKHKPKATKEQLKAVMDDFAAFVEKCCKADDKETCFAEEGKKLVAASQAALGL

By IC50 is commonly meant the point on the concentration scale where inhibition reaches its midpoint. A low value points to greater potency. In turn, `CN(C)CC[C@H](CSc1ccccc1)Nc1ccc(S(=O)(=O)NC(=O)c2ccc(N3CCN(Cc4ccccc4-c4ccc(Cl)cc4)CC3)cc2)cc1[N+](=O)[O-]` [ABT-737] displayed an IC50 in test [1] of 711 µM.

In test [2], `CC1(C)CCC(c2ccc(Cl)cc2)=C(CN2CCN(c3ccc(C(=O)NS(=O)(=O)c4ccc(N[C@H](CCN5CCOCC5)CSc5ccccc5)c(S(=O)(=O)C(F)(F)F)c4)cc3)CC2)C1` [ABT-263] yielded an IC50 of 37 µM.
